This is an account of results in US20060247320A1, “Compounds for inhibiting KSP kinesin activity” (priority 2005, published 2006).

The assay has as its target T1, KSP motor domain (Homo sapiens, UniProt P52732).
T1 sequence (P52732 18-359 limits assumed): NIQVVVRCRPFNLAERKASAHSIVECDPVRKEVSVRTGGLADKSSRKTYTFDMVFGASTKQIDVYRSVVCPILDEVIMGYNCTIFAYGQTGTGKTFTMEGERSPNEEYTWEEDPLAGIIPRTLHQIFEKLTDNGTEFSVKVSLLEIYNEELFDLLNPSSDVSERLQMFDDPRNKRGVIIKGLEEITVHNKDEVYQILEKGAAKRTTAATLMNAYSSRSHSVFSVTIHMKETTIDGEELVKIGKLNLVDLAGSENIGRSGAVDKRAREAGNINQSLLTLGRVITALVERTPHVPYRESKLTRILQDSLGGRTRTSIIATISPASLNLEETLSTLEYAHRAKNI
Description: biochemical. Particulars: read-out: IC50.

The mark [1] stands for this setting: KSP inhibitory activity, end-point assay, class symbols (Table 1).
Setting [2] is: exact IC50 values, end-point assay (Table 2).

Where two headings read alike, the source gives them in different places.

As for `COc1ccc([C@@H](CN)NC(=O)c2cc3cc4c(nc3s2)CCC(C(C)(C)C)C4)cc1` (some centres unmarked) [Example 219], under setting [1], the IC50 was less than 100 nM.

As to `Cc1cccc([C@@H](CN)NC(=O)c2cc3cc4c(nc3s2)CCC(C(C)(C)C)C4)c1` (some centres unmarked) [Example 220], under setting [1], the IC50 is less than 100 nM.

Regarding `Cc1ccc([C@@H](CN)NC(=O)c2cc3cc4c(nc3s2)CCC(C(C)(C)C)C4)cc1` (some centres unmarked) [Example 221], the IC50 under setting [1] is less than 100 nM. Still for that read-out and setting: with `CC(=O)Nc1cccc(C(CN)NC(=O)c2cc3cc4c(nc3s2)CCC(C(C)(C)C)C4)c1` (centres unmarked) [Example 222, 6-tert-butyl-5,6,7,8-tetrahydrothieno[2,3-b]quinoline-2-carboxylic acid [1-(3-acetylaminophenyl)-2-aminoethyl]amide] the figure was less than 100 nM; with `CCOC(=O)Nc1cccc(C(CN)NC(=O)c2cc3cc4c(nc3s2)CCC(C(C)(C)C)C4)c1` (centres unmarked) [Example 223, (3-{2-amino-1-[(6-tert-butyl-5,6,7,8-tetrahydrothieno[2,3-b]quinoline-2-carbonyl)amino]ethyl}phenyl)carbamic acid ethyl ester], less than 100 nM; with `CC(C)(C)C1CCc2nc3sc(C(=O)NC(CN)c4ccc(C(N)=O)cc4)cc3cc2C1` (centres unmarked) [Example 224, 6-tert-butyl-5,6,7,8-tetrahydrothieno[2,3-b]quinoline-2-carboxylic acid [2-amino-1-(4-carbamoylphenyl)ethyl]amide], less than 100 nM. Turning to `CC(C)(C)C1CCc2nc3sc(C(=O)N[C@H](CN)c4ccccc4)nc3cc2C1` (stereo partly drawn) [Example 225, 6-tert-butyl-5,6,7,8-tetrahydro-thiazolo[5,4-b]quinoline-2-carboxylic acid [2(S)-amino-1-phenyl-ethyl]-amide], the IC50 under setting [1] is less than 100 nM.

With `CC(C)(C)C1CCc2nc3sc(C(=O)Nc4ccc(O)cc4)cc3cc2C1` (centres unmarked) [Example 226A, 2-(1-Amino-4-Hydroxyphenyl) carboxamido-6-tert-butyl-5,6,7,8-tetrahydrothieno [2,3-b]quinoline], under setting [1], the half-inhibitory concentration (IC50) lay in the range of 100 to 1000 nM. As to `CC(C)(C)C1CCc2nc3sc(C(=O)Nc4cccnc4)cc3cc2C1` (centres unmarked) [Example 226B], the IC50 under setting [1] is 100 to 1000 nM. Still for that read-out and setting: in the case of `CC(C)(C)C1CCc2nc3sc(C(=O)Nc4ccncc4)cc3cc2C1` (centres unmarked) [Example 226C] it was 100 to 1000 nM. Same read-out and setting: with `CC(C)(C)C1CCc2nc3sc(C(=O)Nc4cccc(N)c4)cc3cc2C1` (centres unmarked) [Example 226D] the figure was 100 to 1000 nM; with `CC(C)(C)C1CCc2nc3sc(C(=O)Nc4ccncc4N)cc3cc2C1` (centres unmarked) [Example 226E], 100 to 1000 nM; with `CC(C)(C)C1CCc2nc3sc(C(=O)Nc4ccc(N)cc4)cc3cc2C1` (centres unmarked) [Example 226F], 100 to 1000 nM. Consider `CC(C)(C)C1CCc2nc3sc(C(=O)Nc4ccc(O)cc4N)cc3cc2C1` (centres unmarked) [Example 226G], for which, under setting [1], the 50% inhibitory concentration (IC50) lay within 100 to 1000 nM. Same read-out and setting: in the case of `CC(C)(C)C1CCc2nc3sc(C(=O)Nc4ccc(O)c(N)c4)cc3cc2C1` (centres unmarked) [Example 226H] it was 100 to 1000 nM; in that of `CC(C)(C)C1CCc2nc3sc(C(=O)Nc4ccc(N)nc4)cc3cc2C1` (centres unmarked) [Example 226J], 100 to 1000 nM. As to `CC(C)(C)C1CCc2nc3sc(C(=O)NC(CN)c4cccc(NC(=O)c5cnccn5)c4)cc3cc2C1` (centres unmarked) [Example 227, 6-tert-Butyl-5,6,7,8-tetrahydrothieno[2,3-b]quinoline-2-carboxylic acid (2-amino-1-{3-[(pyrazine-2-carbonyl)amino]phenyl}ethyl)amide], the 50% inhibitory concentration (IC50) runs as follows: under setting [1], less than 100 nM; under setting [2], 21 nM. Regarding `CC(C)(C)[C@@H]1CCc2nc3sc(C(=O)N[C@H](CN)c4cccc(NC(=O)c5cnc6ccccc6n5)c4)cc3cc2C1` [Example 228], under setting [1], the IC50 was less than 100 nM. The same measure, in the same setting: with `Cc1cc(C(=O)Nc2cccc([C@@H](CN)NC(=O)c3cc4cc5c(nc4s3)CC[C@@H](C(C)(C)C)C5)c2)no1` [Example 229] the figure was less than 100 nM; with `Cc1onc(-c2ccccc2)c1C(=O)Nc1cccc([C@@H](CN)NC(=O)c2cc3cc4c(nc3s2)CC[C@@H](C(C)(C)C)C4)c1` [Example 230], 100 to 1000 nM.

For `CC(C)(C)[C@@H]1CCc2nc3sc(C(=O)N[C@H](CN)c4cccc(NC(=O)c5ccno5)c4)cc3cc2C1` [Example 231, 6(R)-tert-butyl-5,6,7,8-tetrahydro-thieno[2,3-b]quinoline-2-carboxylic acid (2-amino-1(S)-{3-[(isoxazole-5-carbonyl)-amino]-phenyl}-ethyl)-amide], the IC50 under setting [1] is less than 100 nM. Consider `CC(C)(C)[C@@H]1CCc2nc3sc(C(=O)N[C@H](CN)c4cccc(NC(=O)c5ccon5)c4)cc3cc2C1` [Example 232], for which the 50% inhibitory concentration (IC50) under setting [1] was less than 100 nM.

In the case of `Cc1oncc1C(=O)Nc1cccc([C@@H](CN)NC(=O)c2cc3cc4c(nc3s2)CC[C@@H](C(C)(C)C)C4)c1` [Example 233], the half-inhibitory concentration (IC50) under setting [1] is less than 100 nM. With `CC(C)(C)[C@@H]1CCc2nc3sc(C(=O)N[C@H](CN)c4cccc(NC(=O)c5cc(-c6ccccc6)on5)c4)cc3cc2C1` [Example 234], the half-maximal inhibitory concentration (IC50) under setting [1] was less than 100 nM. `CC(C)(C)[C@@H]1CCc2nc3sc(C(=O)N[C@H](CN)c4cccc(NC(=O)c5ccns5)c4)cc3cc2C1` [Example 235]: the half-maximal inhibitory concentration (IC50) under setting [1] was less than 100 nM and the concentration for half-maximal inhibition (IC50) under setting [2] is 23 nM. In the case of `CC(C)(C)[C@@H]1CCc2nc3sc(C(=O)N[C@H](CN)c4cccc(NC(=O)c5cc[nH]n5)c4)cc3cc2C1` [Example 236], the IC50 under setting [1] was less than 100 nM. On to `CC(C)(C)[C@@H]1CCc2nc3sc(C(=O)N[C@H](CN)c4cccc(NC(=O)c5cn[nH]c5)c4)cc3cc2C1` [Example 237], for which the IC50 is, setting by setting: under setting [1], less than 100 nM; under setting [2], 10 nM. `Cn1nccc1C(=O)Nc1cccc([C@@H](CN)NC(=O)c2cc3cc4c(nc3s2)CC[C@@H](C(C)(C)C)C4)c1` [Example 238]: the half-maximal inhibitory concentration (IC50) under setting [1] is less than 100 nM. For the compound `Cn1ccc(C(=O)Nc2cccc([C@@H](CN)NC(=O)c3cc4cc5c(nc4s3)CC[C@@H](C(C)(C)C)C5)c2)n1` [Example 239], the IC50 under setting [1] was less than 100 nM.

`Cn1cc(C(=O)Nc2cccc([C@@H](CN)NC(=O)c3cc4cc5c(nc4s3)CC[C@@H](C(C)(C)C)C5)c2)cn1` [Example 240]: the IC50 under setting [1] was less than 100 nM. For the compound `CC(C)(C)[C@@H]1CCc2nc3sc(C(=O)N[C@H](CN)c4cccc(NC(=O)c5ccn(-c6ccccc6)n5)c4)cc3cc2C1` [Example 241], under setting [1], the IC50 was less than 100 nM. Same read-out and setting: with `Cc1cc(C(=O)Nc2cccc([C@@H](CN)NC(=O)c3cc4cc5c(nc4s3)CC[C@@H](C(C)(C)C)C5)c2)n[nH]1` [Example 242] the figure was less than 100 nM; with `Cc1[nH]ncc1C(=O)Nc1cccc([C@@H](CN)NC(=O)c2cc3cc4c(nc3s2)CC[C@@H](C(C)(C)C)C4)c1` [Example 243], less than 100 nM. On to `Cc1cc(C(=O)Nc2cccc([C@@H](CN)NC(=O)c3cc4cc5c(nc4s3)CC[C@@H](C(C)(C)C)C5)c2)nn1C` [Example 244], for which the IC50 under setting [1] was less than 100 nM. As for `Cn1ncc(C(=O)Nc2cccc([C@@H](CN)NC(=O)c3cc4cc5c(nc4s3)CC[C@@H](C(C)(C)C)C5)c2)c1C(F)(F)F` [Example 245], the IC50 under setting [1] is less than 100 nM.

As to `Cn1nc(C(F)(F)F)c(C(=O)Nc2cccc([C@@H](CN)NC(=O)c3cc4cc5c(nc4s3)CC[C@@H](C(C)(C)C)C5)c2)c1Cl` [Example 246], the half-maximal inhibitory concentration (IC50) under setting [1] is less than 100 nM.

Take `CC(C)(C)[C@@H]1CCc2nc3sc(C(=O)N[C@H](CN)c4cccc(NC(=O)c5ncc[nH]5)c4)cc3cc2C1` [Example 247]: under setting [1], the IC50 was less than 100 nM. For the compound `CC(C)(C)[C@@H]1CCc2nc3sc(C(=O)N[C@H](CN)c4cccc(NC(=O)c5c[nH]cn5)c4)cc3cc2C1` [Example 248], the IC50 under setting [1] is less than 100 nM. As to `Cn1cnc(C(=O)Nc2cccc([C@@H](CN)NC(=O)c3cc4cc5c(nc4s3)CC[C@@H](C(C)(C)C)C5)c2)c1` [Example 249], the IC50 under setting [1] is less than 100 nM. Turning to `Cn1ccnc1C(=O)Nc1cccc([C@@H](CN)NC(=O)c2cc3cc4c(nc3s2)CC[C@@H](C(C)(C)C)C4)c1` [Example 250], the IC50 runs as follows: under setting [1], less than 100 nM; under setting [2], 19 nM. For `Cn1cncc1C(=O)Nc1cccc([C@@H](CN)NC(=O)c2cc3cc4c(nc3s2)CC[C@@H](C(C)(C)C)C4)c1` [Example 251], the half-inhibitory concentration (IC50) under setting [1] was less than 100 nM.

Turning to `CC(C)(C)[C@@H]1CCc2nc3sc(C(=O)N[C@H](CN)c4cccc(NC(=O)c5ccc[nH]5)c4)cc3cc2C1` [Example 252], the IC50 under setting [1] is less than 100 nM. Same read-out and setting: with `CC(C)(C)[C@@H]1CCc2nc3sc(C(=O)N[C@H](CN)c4cccc(NC(=O)c5nsc(Cl)c5Cl)c4)cc3cc2C1` [Example 253A] the figure was 100 to 1000 nM; with `CC(C)(C)[C@@H]1CCc2nc3sc(C(=O)N[C@H](CN)c4cccc(NC(=O)c5cnn[nH]5)c4)cc3cc2C1` [Example 253], 100 to 1000 nM; with `CC(C)(C)[C@@H]1CCc2nc3sc(C(=O)N[C@H](CN)c4cccc(NC(=O)c5nscc5N)c4)cc3cc2C1` [Example 254], 100 to 1000 nM. Same read-out and setting: with `CC(C)(C)[C@@H]1CCc2nc3sc(C(=O)N[C@H](CN)c4cccc(NC(=O)c5nsnc5N)c4)cc3cc2C1` [Example 255] the figure was less than 100 nM; with `CNc1nsnc1C(=O)Nc1cccc([C@@H](CN)NC(=O)c2cc3cc4c(nc3s2)CC[C@@H](C(C)(C)C)C4)c1` [Example 256], less than 100 nM.

Regarding `CC(C)(C)[C@@H]1CCc2nc3sc(C(=O)N[C@H](CN)c4cccc(NC(=O)c5csnn5)c4)cc3cc2C1` [Example 257], the concentration for half-maximal inhibition (IC50) was less than 100 nM under setting [1] and 23 nM under setting [2].

In the case of `Cc1nnsc1C(=O)Nc1cccc([C@@H](CN)NC(=O)c2cc3cc4c(nc3s2)CC[C@@H](C(C)(C)C)C4)c1` [Example 258], the IC50 under setting [1] is less than 100 nM. For `Cc1cnc(C(=O)Nc2cccc([C@@H](CN)NC(=O)c3cc4cc5c(nc4s3)CC[C@@H](C(C)(C)C)C5)c2)cn1` [Example 259], the 50% inhibitory concentration (IC50) under setting [1] was less than 100 nM and the half-maximal inhibitory concentration (IC50) under setting [2] was found to be 17 nM.

In general, IC50 refers to the concentration needed to halve the response being measured.
